# Test results as given in PubChem BioAssay AID180 (DTP/NCI, 2004).
# Where “and” joins values, the source holds several entries; their conditions need not be identical. Identical values can stand only once.
# Tested on: BDF1 mice, Adenocarcinoma 755 s.c., tumor weight T/C
# Test: NCI In Vivo Anticancer Drug Screen. Data for tumor model Adenocarcinoma 755 (subcutaneous) in B6D2F1 (BDF1) mice
# Details: endpoint: mean tumor weight, higher = larger tumour
# Experimental: The antitumor activity of compounds was measured in mice bearing transplantable tumors. Survival or tumor size were measured and the results are expressed as the measurement made in the treated group (T) divided by the measurement made in the vehicle treated control group (C). The tumor model used in this assay is Adenocarcinoma 755 (subcutaneous) in B6D2F1 (BDF1) mice
# [1] = dose: 25.0 mg/kg/injection, schedule: Q01DX011 (ip), vehicle: carboxymethylcellulose (CMC)
# [2] = dose: 225.0 mg/kg/injection, schedule: Q01DX011 (ip), vehicle: carboxymethylcellulose (CMC)
# [3] = dose: 14.0 mg/kg/injection, schedule: Q01DX011 (ip), vehicle: carboxymethylcellulose (CMC)
# [4] = dose: 28.0 mg/kg/injection, schedule: Q01DX011 (ip), vehicle: carboxymethylcellulose (CMC)
# [5] = dose: 15.0 mg/kg/injection, schedule: Q01DX011 (ip), vehicle: methylcellulose (MC)
# [6] = dose: 31.0 mg/kg/injection, schedule: Q01DX011 (ip), vehicle: methylcellulose (MC)
# [7] = dose: 250.0 mg/kg/injection, schedule: Q01DX011 (ip), vehicle: methylcellulose (MC)
# [8] = dose: 6.25 mg/kg/injection, schedule: Q01DX011 (ip), vehicle: carboxymethylcellulose (CMC)
# [9] = dose: 12.5 mg/kg/injection, schedule: Q01DX011 (ip), vehicle: carboxymethylcellulose (CMC)
compound,measurement,setting,value
Nc1nc(SCc2ccccn2)c2[nH]cnc2n1,T/C,"dose: 0.78 mg/kg/injection, schedule: Q01DX011 (ip), vehicle: methylcellulose (MC)",63 % of control
same,T/C,"dose: 1.56 mg/kg/injection, schedule: Q01DX011 (ip), vehicle: methylcellulose (MC)",14 % of control
same,T/C,"dose: 3.12 mg/kg/injection, schedule: Q01DX011 (ip), vehicle: methylcellulose (MC)",3 % of control
same,T/C,"dose: 6.25 mg/kg/injection, schedule: Q01DX011 (ip), vehicle: methylcellulose (MC)",2 % of control
CN(C)S(=O)(=O)c1nc2nc[nH]c2c(=O)[nH]1,T/C,[1],70 % of control
same,T/C,"dose: 75.0 mg/kg/injection, schedule: Q01DX011 (ip), vehicle: carboxymethylcellulose (CMC)",66 % of control
same,T/C,[2],85 % of control
Nc1nc2c(nc(I)n2C2OC(CO)C(O)C2O)c(=O)[nH]1 (stereo not given),T/C,"dose: 30.0 mg/kg/injection, schedule: Q01DX011 (ip), vehicle: carboxymethylcellulose (CMC)",94 % of control
same,T/C,"dose: 60.0 mg/kg/injection, schedule: Q01DX011 (ip), vehicle: carboxymethylcellulose (CMC)",87 % of control
same,T/C,"dose: 120.0 mg/kg/injection, schedule: Q01DX011 (ip), vehicle: carboxymethylcellulose (CMC)",26 % of control
same,T/C,"dose: 240.0 mg/kg/injection, schedule: Q01DX011 (ip), vehicle: carboxymethylcellulose (CMC)",40 % of control
C1OC1C1CO1 (stereo not given),T/C,"dose: 3.05 mg/kg/injection, schedule: Q01DX011 (ip), vehicle: carboxymethylcellulose (CMC)",83 % of control
same,T/C,"dose: 3.5 mg/kg/injection, schedule: Q01DX011 (ip), vehicle: carboxymethylcellulose (CMC)",77 % of control
same,T/C,"dose: 7.0 mg/kg/injection, schedule: Q01DX011 (ip), vehicle: carboxymethylcellulose (CMC)",72 % of control
same,T/C,"dose: 8.13 mg/kg/injection, schedule: Q01DX011 (ip), vehicle: carboxymethylcellulose (CMC)",62 % of control and 68 % of control
same,T/C,[3],110 % of control
same,T/C,"dose: 24.4 mg/kg/injection, schedule: Q01DX011 (ip), vehicle: carboxymethylcellulose (CMC)",24 % of control and 33 % of control and 45 % of control
same,T/C,[4],61 % of control
Nc1ncnc2c1ncn2C1CCCCC1,T/C,"dose: 34.0 mg/kg/injection, schedule: Q01DX011 (oral), vehicle: carboxymethylcellulose (CMC)",75 % of control
same,T/C,"dose: 68.0 mg/kg/injection, schedule: Q01DX011 (oral), vehicle: carboxymethylcellulose (CMC)",120 % of control
same,T/C,"dose: 136.0 mg/kg/injection, schedule: Q01DX011 (oral), vehicle: carboxymethylcellulose (CMC)",78 % of control
same,T/C,"dose: 272.0 mg/kg/injection, schedule: Q01DX011 (oral), vehicle: carboxymethylcellulose (CMC)",106 % of control
CSc1ncc(Br)c(SCc2ccc(Cl)cc2Cl)n1,T/C,[5],69 % of control
same,T/C,[6],108 % of control
same,T/C,[7],60 % of control
CCCn1cnc2c(=S)nc[nH]c21,T/C,"dose: 0.25 mg/kg/injection, schedule: Q01DX011 (ip), vehicle: carboxymethylcellulose (CMC)",80 % of control
same,T/C,"dose: 1.0 mg/kg/injection, schedule: Q01DX011 (ip), vehicle: carboxymethylcellulose (CMC)",53 % of control
same,T/C,"dose: 3.0 mg/kg/injection, schedule: Q01DX011 (ip), vehicle: carboxymethylcellulose (CMC)",8 % of control and 11 % of control
same,T/C,"dose: 4.0 mg/kg/injection, schedule: Q01DX011 (ip), vehicle: carboxymethylcellulose (CMC)",7 % of control
same,T/C,[8],6 % of control
same,T/C,"dose: 8.0 mg/kg/injection, schedule: Q01DX011 (ip), vehicle: carboxymethylcellulose (CMC)",10 % of control
same,T/C,[9],5 % of control
same,T/C,"dose: 16.0 mg/kg/injection, schedule: Q01DX011 (ip), vehicle: carboxymethylcellulose (CMC)",4 % of control and 9 % of control
same,T/C,[1],2 % of control
same,T/C,"dose: 31.0 mg/kg/injection, schedule: Q01DX011 (ip), vehicle: carboxymethylcellulose (CMC)",7 % of control
same,T/C,"dose: 62.0 mg/kg/injection, schedule: Q01DX011 (ip), vehicle: carboxymethylcellulose (CMC)",6 % of control
NC(=O)CCl,T/C,"dose: 25.0 mg/kg/injection, schedule: Q01DX011 (ip), vehicle: other",91 % of control
same,T/C,"dose: 50.0 mg/kg/injection, schedule: Q01DX011 (ip), vehicle: other",64 % of control
CCCCCCCCCCCCCCCCCCNC,T/C,[3],77 % of control
C/C=C1\CN(C)[C@H]2Cc3c([nH]c4ccccc34)[C@@H](c3cc4[nH]c5c(c4cc3OC)CCN3C[C@H]4C[C@H](CC)[C@H]3[C@@]5(C(=O)OC)C4)C[C@H]1C2C(=O)OC (stereo not given in full),T/C,"dose: 30.0 mg/kg/injection, schedule: Q01DX011 (ip), vehicle: water",58 % of control
same,T/C,"dose: 35.0 mg/kg/injection, schedule: Q01DX006 (ip), vehicle: water",57 % of control
same,T/C,"dose: 45.0 mg/kg/injection, schedule: Q01DX011 (ip), vehicle: water",41 % of control
same,T/C,"dose: 50.0 mg/kg/injection, schedule: Q01DX006 (ip), vehicle: water",61 % of control and 69 % of control
same,T/C,"dose: 70.0 mg/kg/injection, schedule: Q01DX006 (ip), vehicle: water",51 % of control
same,T/C,"dose: 80.0 mg/kg/injection, schedule: Q01DX006 (ip), vehicle: water",54 % of control
O=C(CCBr)Nc1ccc(NC(=O)CCBr)cc1,T/C,"dose: 56.0 mg/kg/injection, schedule: Q01DX011 (ip), vehicle: methylcellulose (MC)",113 % of control
same,T/C,"dose: 113.0 mg/kg/injection, schedule: Q01DX011 (ip), vehicle: methylcellulose (MC)",108 % of control
same,T/C,"dose: 225.0 mg/kg/injection, schedule: Q01DX011 (ip), vehicle: methylcellulose (MC)",100 % of control
same,T/C,"dose: 450.0 mg/kg/injection, schedule: Q01DX011 (ip), vehicle: methylcellulose (MC)",117 % of control
CCCn1cnc2c(=S)nc(N)[nH]c21,T/C,"dose: 0.03 mg/kg/injection, schedule: Q01DX011 (ip), vehicle: methylcellulose (MC)",103 % of control
same,T/C,"dose: 0.06 mg/kg/injection, schedule: Q01DX011 (ip), vehicle: methylcellulose (MC)",82 % of control
same,T/C,"dose: 0.11 mg/kg/injection, schedule: Q01DX011 (ip), vehicle: methylcellulose (MC)",45 % of control
same,T/C,"dose: 0.22 mg/kg/injection, schedule: Q01DX011 (ip), vehicle: methylcellulose (MC)",6 % of control and 7 % of control
same,T/C,"dose: 0.44 mg/kg/injection, schedule: Q01DX011 (ip), vehicle: methylcellulose (MC)",8 % of control
same,T/C,"dose: 0.88 mg/kg/injection, schedule: Q01DX011 (ip), vehicle: methylcellulose (MC)",4 % of control
same,T/C,"dose: 1.75 mg/kg/injection, schedule: Q01DX011 (ip), vehicle: methylcellulose (MC)",4 % of control
Cc1cn(C2OC(CO)C(O)C2O)c(=O)[nH]c1=O (stereo not given),T/C,"dose: 62.0 mg/kg/injection, schedule: Q01DX011 (ip), vehicle: saline",86 % of control
same,T/C,"dose: 125.0 mg/kg/injection, schedule: Q01DX011 (ip), vehicle: saline",78 % of control
same,T/C,"dose: 500.0 mg/kg/injection, schedule: Q01DX011 (ip), vehicle: saline",121 % of control
CSc1ncc(Br)c(=O)[nH]1,T/C,[5],81 % of control
same,T/C,[6],72 % of control
same,T/C,[7],56 % of control
CC(CNC(=O)CCOS(C)(=O)=O)CNC(=O)CCOS(C)(=O)=O,T/C,[8],120 % of control
same,T/C,[9],92 % of control
same,T/C,[3],73 % of control
same,T/C,[1],111 % of control
same,T/C,[4],108 % of control
same,T/C,"dose: 50.0 mg/kg/injection, schedule: Q01DX011 (ip), vehicle: carboxymethylcellulose (CMC)",39 % of control
same,T/C,"dose: 57.0 mg/kg/injection, schedule: Q01DX011 (ip), vehicle: carboxymethylcellulose (CMC)",72 % of control
same,T/C,"dose: 100.0 mg/kg/injection, schedule: Q01DX011 (ip), vehicle: carboxymethylcellulose (CMC)",15 % of control
same,T/C,"dose: 113.0 mg/kg/injection, schedule: Q01DX011 (ip), vehicle: carboxymethylcellulose (CMC)",20 % of control and 36 % of control
same,T/C,"dose: 200.0 mg/kg/injection, schedule: Q01DX011 (ip), vehicle: carboxymethylcellulose (CMC)",2 % of control
same,T/C,[2],4 % of control
O=C(CCCl)N1CCc2ccccc2C1,T/C,"dose: 25.0 mg/kg/injection, schedule: Q01DX011 (sc), vehicle: olive oil, sesame oil, peanut oil",71 % of control
same,T/C,"dose: 75.0 mg/kg/injection, schedule: Q01DX011 (sc), vehicle: olive oil, sesame oil, peanut oil",99 % of control
